Results on nine molecules are retold here after US4537893A, “Octahydrothiazolo[4,5-g]quinolines and use as prolactin secretion inhibitors” (Eli Lilly and Company, priority 1984, dated 1985).

Test [1] concerns 6-hydroxydopamine-lesioned rats (nigroneostriatal-lesioned). As to the kind of experiment: Turning behavior in 6-hydroxydopamine-lesioned rats (Table 2). Type of test: in vivo, rat. The following applies: for Average No. of turns per rat: first 15 minutes after end of latency period. From the text: In this test, nigroneostriatal-lesioned rats are employed, as prepared by the procedure of Ungerstedt and Arbuthnott, Brain Res, 24, 485 (1970). A compound having dopamine agonist activity causes the rats to turn in circles contralateral to the side of the lesion. After a latency period, which varies from compound to compound, the number of turns is counted over a 15-minute period.

Test [2] has as its system prolactin secretion. As to the kind of experiment: Inhibition of prolactin secretion in reserpine-treated male rats (Table 1). The following applies: 50 mcg/kg i.p., 1 h after treatment. Type of test: in vivo, rat (Sprague-Dawley). Here is the method:
As previously stated, the drugs of this invention as represented by formulas I and III above are D-2 dopamine agonists.
Adult male rats of the Sprague-Dawley strain weighing about 200 g. were housed in an air-conditioned room with controlled lighting (lights on 6 a.m.-8 p.m.) and fed lab chow and water ad libitum. Each rat received an intraperitoneal injection of 2.0 mg. of reserpine in aqueous suspension 18 hours before administration of the test drug. The purpose of the reserpine was to keep the rat prolactin levels uniformly elevated. The compound was dissolved in 10 percent ethanol, and injected intraperitoneally at doses of 0.017, 0.03, 0.17 and 0.3μ moles/kg. The compound was administered at each dose level to a group of 10 rats, and a control group of 10 intact males received an equivalent amount of 10 percent ethanol. One hour after treatment, all rats were killed by decapitation, and 150 μl aliquots of serum were assayed for prolactin.
The difference between the prolactin level of the treated rats and prolactin level of the control rats, divided by the prolactin level of the control rats, gives the percent inhibition of prolactin secretion attributable to the given dose. Inhibition percentages are given in Tables 1 and 2 below for compounds according to I or III above respectively. […]

As to `CCCN1CCC[C@H]2Cc3nc(NC(C)=O)sc3C[C@@H]21` (racemic) [n-Pr, NHCOCH3, FB, trans-(±), Trans-(±)-2-acetylamino-5-n-propyl-4,4a,5,6,7,8,8a,9-octahydrothiazolo[4,5-g]quinoline], in test [1] (dose 1000 mcg/kg), the “% Rats exhibiting turning behaviour” value came to 100% and the “Average No. of turns per rat” value worked out at 91 turns per rat.
`CCCN1CCC[C@H]2Cc3nc(NC)sc3C[C@@H]21.Cl.Cl` (racemic) [n-Pr, NHCH3, 2HCl, trans (±), trans-(±)-2-methylamino-5-n-propyl-4,4a,5,6,7,8,8a,9-octahydrothiazolo[4,5-g]-quinoline dihydrochloride]: the entries for the “% Rats exhibiting turning behaviour” value in test [1] (dose 20 mcg/kg), in test [1] (dose 100 mcg/kg) and in test [1] (dose 1000 mcg/kg) were 75%, 100% and 100%, respectively. The “Average No. of turns per rat” value in test [1] (dose 20 mcg/kg) is 27 turns per rat; in test [1] (dose 100 mcg/kg), 80 turns per rat; in test [1] (dose 1000 mcg/kg), 100 turns per rat.
As to `Br.Br.CCCN1CCC[C@H]2Cc3nc(N)sc3C[C@@H]21` (racemic) [n-Pr, NH2, 2HBr, trans (±), trans-(±)-2-amino-5-n-propyl-4,4a,5,6,7,8,8a,9-octahydrothiazolo[4,5-g]quinoline dihydrobromide], the “% Rats exhibiting turning behaviour” value in test [1] (dose 20 mcg/kg) is 0%; in test [1] (dose 100 mcg/kg) it was 78%. The “Average No. of turns per rat” value in test [1] (dose 100 mcg/kg) was determined as 51 turns per rat.
Regarding `CCCN1CCC[C@H]2Cc3nc(N4CCCC4)sc3C[C@@H]21` (racemic) [n-Pr, 1-pyrrolidinyl, FB, Trans-(±), Trans-(±)-2-(1-pyrrolidinyl)-5-n-propyl-4,4a,5,6,7,8,8a,9-octahydrothiazolo[4,5-g]quinoline], in test [1] (dose 1000 mcg/kg), the “% Rats exhibiting turning behaviour” value is 100% and the “Average No. of turns per rat” value is listed as 67 turns per rat.
Regarding `CCCN1CCC[C@H]2Cc3ncsc3C[C@@H]21.Cl.Cl` (racemic) [n-Pr, H, 2HCl, trans-(±), trans-(±)-5-n-propyl-4,4a,5,6,7,8,8a,9-octahydrothiazolo[4,5-g]quinoline dihydrochloride], the “% Rats exhibiting turning behaviour” value in test [1] (dose 20 mcg/kg) was determined as 25%; in test [1] (dose 100 mcg/kg), 100%; in test [1] (dose 1000 mcg/kg), 100%. For the same molecule, the “Average No. of turns per rat” value in test [1] (dose 20 mcg/kg) came to 16 turns per rat; in test [1] (dose 100 mcg/kg), 44 turns per rat; in test [1] (dose 1000 mcg/kg) it was 100 turns per rat.
Take `CCCN1CCC[C@@H]2Cc3nc(N)sc3C[C@H]21` [n-Pr, NH2, 2HCl, trans-(-), 4aR,8aR-2-amino-5-n-propyl-4,4a,5,6,7,8,8a,9-octahydrothiazolo[4,5-g]quinoline]: the “% Rats exhibiting turning behaviour” value in test [1] (dose 20 mcg/kg) is 100%; in test [1] (dose 100 mcg/kg), 80%; in test [1] (dose 1000 mcg/kg), 100%. Further, the “Average No. of turns per rat” value stood at 37 turns per rat in test [1] (dose 20 mcg/kg), 102 turns per rat in test [1] (dose 100 mcg/kg) and 109 turns per rat in test [1] (dose 1000 mcg/kg).
Consider `CCCN1CCC[C@H]2Cc3nc(Br)sc3C[C@@H]21` (racemic) [n-Pr, Br, 2HCl, Trans-(±), Trans-(±)-2-bromo-5-n-propyl-4,4a,5,6,7,8,8a,9-octahydrothiazolo[4,5-g]quinoline], for which, in test [1] (dose 1000 mcg/kg), the “% Rats exhibiting turning behaviour” value came out at 100% and the “Average No. of turns per rat” value is 42 turns per rat.
In the same order, the values of `CCCN1CCC[C@H]2Cc3nc(N(C)C)sc3C[C@@H]21` (racemic) [n-Pr, N(CH3)2, 2HCl, trans (±), trans-(±)-2-dimethylamino-5-n-propyl-4,4a,5,6,7,8,8a,9-octahydrothiazolo[4,5-g]quinoline] are 100% and 62 turns per rat.
Regarding `CCC[N+]1(C)CCCC2Cc3scnc3CC21.I.[I-]` (racemic) [n-Pr, H, HI methiodide, trans-(±), trans-(±)-5-n-propyl-4,4a,5,6,7,8,8a,9-octahydrothiazolo[4,5-g]quinolinium methiodide hydroiodide], the “Percent Inhibition of Prolactin Secretion” value in test [2] came out at 30%.
